# Test results: ChEMBL document CHEMBL4428133, “Tyrosyl-DNA phosphodiesterase inhibitors: Progress and potential” (Bioorg Med Chem, 2016)
# Columns and labels:
# [1] = biological target: T1, Tyrosyl-DNA phosphodiesterase 2 (Homo sapiens, UniProt O95551); test: Inhibition of human N-terminal His-tagged TDP2 expressed in Escherichia coli JM109(DE3) using 5'-Y-TCCGTTGAAGCCTGCTTT-3' as substrate incubated for 60 mins by microplate reader analysis
# T1 sequence (O95551 whole entry): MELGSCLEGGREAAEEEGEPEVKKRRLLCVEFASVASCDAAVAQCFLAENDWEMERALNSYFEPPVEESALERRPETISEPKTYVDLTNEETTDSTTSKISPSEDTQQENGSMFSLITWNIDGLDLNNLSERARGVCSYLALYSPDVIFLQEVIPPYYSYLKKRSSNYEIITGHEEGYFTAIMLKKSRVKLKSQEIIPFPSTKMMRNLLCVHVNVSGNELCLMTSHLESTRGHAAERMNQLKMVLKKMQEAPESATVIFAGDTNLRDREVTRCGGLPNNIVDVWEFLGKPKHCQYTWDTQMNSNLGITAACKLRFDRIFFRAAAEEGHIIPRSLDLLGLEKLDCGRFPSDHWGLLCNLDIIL
# [2] = Non-competitive inhibition of human 7721 cell membrane-derived phospholipase D using phosphatidylcholine as substrate preincubated for 10 mins followed by substrate addition in presence of PIP2 by Cornish-Bowden plot analysis
# [3] = biological target: T2, Tyrosyl-DNA phosphodiesterase 1 (Homo sapiens, UniProt Q9NUW8); test: Inhibition of recombinant TDP1 (unknown origin) using 5'-32P-labeled N14Y DNA substrate incubated for 15 mins by PAGE analysis
# [4] = biological target: T1, Tyrosyl-DNA phosphodiesterase 2; test: Inhibition of human recombinant TDP2 using 18-mer single stranded 5'-32P-labeled cordycepin DNA substrate incubated for 15 mins by PAGE analysis
# [5] = biological target: T1, Tyrosyl-DNA phosphodiesterase 2; test: Inhibition of TDP2 (unknown origin)
# [6] = biological target: T2, Tyrosyl-DNA phosphodiesterase 1; test: Inhibition of N-terminal His-tagged TDP1 (unknown origin) expressed in Escherichia coli BL21(DE3) using 5'-6-FAM-AGGATCTAAAAGACTT-3BHQ-3' as substrate preincubated for 30 mins followed by substrate addition by fluorescence assay
# MCF7 = test: Growth inhibition of human MCF7 cells at 10 uM after 96 hrs in presence of camptothecin by MTT assay relative to camptothecin alone; format: functional; conditions: MCF7, 96 h, read-out: GI
# DNA topoisomerase 1 = biological target: T3, DNA topoisomerase 1 (Homo sapiens, UniProt P11387); test: Inhibition of topoisomerase-1 (unknown origin) using pBR 322 DNA as substrate
# T3 sequence (P11387 whole entry): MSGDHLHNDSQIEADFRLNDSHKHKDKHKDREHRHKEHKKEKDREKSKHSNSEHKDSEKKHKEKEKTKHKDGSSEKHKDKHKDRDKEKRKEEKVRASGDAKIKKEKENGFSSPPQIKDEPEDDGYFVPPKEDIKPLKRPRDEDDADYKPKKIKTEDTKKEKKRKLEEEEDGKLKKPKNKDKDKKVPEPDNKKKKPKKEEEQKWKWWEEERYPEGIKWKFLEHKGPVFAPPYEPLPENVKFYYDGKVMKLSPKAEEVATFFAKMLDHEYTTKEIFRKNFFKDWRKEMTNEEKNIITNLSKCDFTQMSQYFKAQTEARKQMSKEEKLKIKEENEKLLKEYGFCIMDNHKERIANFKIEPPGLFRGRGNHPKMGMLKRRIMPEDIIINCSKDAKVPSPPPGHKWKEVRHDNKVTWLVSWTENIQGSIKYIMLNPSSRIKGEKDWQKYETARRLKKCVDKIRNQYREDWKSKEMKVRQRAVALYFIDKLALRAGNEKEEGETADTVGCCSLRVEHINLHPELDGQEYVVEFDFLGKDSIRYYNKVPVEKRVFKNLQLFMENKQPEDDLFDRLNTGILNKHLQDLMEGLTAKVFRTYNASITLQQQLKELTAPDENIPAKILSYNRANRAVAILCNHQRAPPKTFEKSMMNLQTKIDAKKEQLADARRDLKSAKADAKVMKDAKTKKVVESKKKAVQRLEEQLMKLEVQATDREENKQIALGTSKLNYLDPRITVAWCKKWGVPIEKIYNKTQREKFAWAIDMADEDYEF
# [7] = biological target: T2, Tyrosyl-DNA phosphodiesterase 1; test: Inhibition of human N-terminal His-tagged TDP1 expressed in Escherichia coli BL21 using [32P]-D14Y duplex DNA as substrate incubated for 20 mins by PAGE analysis
# [8] = Inhibition of human Jurkat cell membrane-derived protein tyrosine phosphatase using o-phospho-L-tyrosine as substrate incubated for 15 mins by malachite green staining based assay
# [9] = biological target: T2, Tyrosyl-DNA phosphodiesterase 1; test: Inhibition of TDP1 (unknown origin) using 14-mer duplex oligonucleotide [32P]-D14Y as substrate incubated for 20 mins by PAGE analysis
# [10] = biological target: T2, Tyrosyl-DNA phosphodiesterase 1; test: Inhibition of recombinant TDP1 (unknown origin) using 5'-32P-labeled N14Y DNA substrate incubated for 20 mins by PAGE analysis
# T2 sequence (Q9NUW8 whole entry): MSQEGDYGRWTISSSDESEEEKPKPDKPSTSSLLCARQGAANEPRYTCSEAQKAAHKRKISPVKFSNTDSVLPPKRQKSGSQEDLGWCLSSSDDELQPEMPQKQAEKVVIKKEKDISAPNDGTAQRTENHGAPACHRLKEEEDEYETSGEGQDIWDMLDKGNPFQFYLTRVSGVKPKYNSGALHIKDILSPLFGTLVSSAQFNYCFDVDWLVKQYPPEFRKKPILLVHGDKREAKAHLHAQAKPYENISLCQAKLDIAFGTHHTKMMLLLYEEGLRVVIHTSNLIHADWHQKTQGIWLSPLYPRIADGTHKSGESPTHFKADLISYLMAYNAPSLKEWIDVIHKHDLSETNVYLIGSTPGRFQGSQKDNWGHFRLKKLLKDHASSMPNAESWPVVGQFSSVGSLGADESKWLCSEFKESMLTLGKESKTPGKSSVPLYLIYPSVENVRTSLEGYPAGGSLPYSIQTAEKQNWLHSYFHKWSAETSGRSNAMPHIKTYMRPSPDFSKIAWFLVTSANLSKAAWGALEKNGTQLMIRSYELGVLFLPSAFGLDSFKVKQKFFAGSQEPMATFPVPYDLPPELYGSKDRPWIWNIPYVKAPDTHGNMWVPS
compound,measurement,setting,value
Cc1cc2nc3c(=O)[nH]c(=O)nc-3n(C)c2cc1C=O,EC50,[1],3.5 µM
NCC1O[C@H](O[C@H]2[C@@H](O)[C@H](O[C@@H]3[C@@H](O)[C@H](N)C[C@H](N)[C@H]3O[C@H]3O[C@H](CN)[C@@H](O)[C@H](O)[C@H]3N)O[C@@H]2CO)[C@H](N)[C@@H](O)[C@@H]1O (some centres undefined),Ki,[2],8700 µM
COc1ccc2c(c1)Oc1nc(-c3ccc(C)cc3)nc(SCC(=O)Nc3ccc(C(=O)O)cc3)c1C2,IC50,[3],12.1 µM
CCn1cc(C(=O)O)c(=O)c2cc(F)c(N3CCN(CNc4ccc(S(=O)(=O)Nc5nc(C)cc(C)n5)cc4)CC3)cc21,IC50,[3],0.005 µM
O=C(O)c1ccc(-c2ccc(/C=C3/NC(=O)N(Cc4ccccc4F)C3=O)o2)cc1,IC50,[3],7.7 µM
same,IC50,[4],32 µM
NC1=CC(N)=C2C=CC(=O)N=C2C1=O,IC50,[5],2 µM
O=C1NC(=S)NC(=O)C1=Cc1ccco1,IC50,[6],0.71 µM
same,inhibition of growth at 10 µM,MCF7,25%
O=C1c2c(c3c4cccc(O)c4n([C@@H]4O[C@H](CO)[C@@H](O)[C@H](O)[C@H]4O)c3c3[nH]c4c(O)cccc4c23)C(=O)N1NC(CO)CO,EC50,DNA topoisomerase 1,0.58 µM
COc1c(N2CCN(CNc3ccc(S(=O)(=O)Nc4nc(C)cc(C)n4)cc3)C(C)C2)c(F)cc2c(=O)c(C(=O)O)cn(C3CC3)c12 (centres undefined),IC50,[3],0.022 µM
CCC[C@@H]1C[C@@H](C(=O)N[C@@H]([C@H]2O[C@H](SC)[C@H](OP(=O)(O)O)[C@@H](O)[C@H]2O)[C@H](C)Cl)N(C)C1 [CLINDAMYCIN PHOSPHATE],IC50,[7],9100 µM
CN(N=O)c1cc(O)ccc1O [DEPHOSTATIN],IC50,[8],7.7 µM
NC[C@@H]1O[C@H](O[C@H]2[C@@H](O)[C@H](O[C@@H]3[C@@H](O)[C@H](N)C[C@H](N)[C@H]3O[C@H]3O[C@H](CO)[C@@H](O)C[C@H]3N)O[C@@H]2CO)[C@H](N)[C@@H](O)[C@@H]1O[C@H]1O[C@H](CO)[C@@H](O)[C@H](O)[C@@H]1O [LIVIDOMYCIN],IC50,[9],30000 µM
CCN[C@@H]1C[C@H](N)[C@@H](O[C@H]2OC(CN)=CC[C@H]2N)[C@H](O)[C@H]1O[C@H]1OC[C@](C)(O)[C@H](NC)[C@H]1O [NETILMICIN],IC50,[9],8000 µM
COc1ccc(C[C@H](N)C(=O)N[C@H]2[C@@H](O)[C@H](n3cnc4c(N(C)C)ncnc43)O[C@@H]2CO)cc1 [PUROMYCIN],IC50,[7],18000 µM
Cc1ccc(C(=O)Nc2ccc(S(=O)(=O)O)c3cc(S(=O)(=O)O)cc(S(=O)(=O)O)c23)cc1NC(=O)c1cccc(NC(=O)Nc2cccc(C(=O)Nc3cc(C(=O)Nc4ccc(S(=O)(=O)O)c5cc(S(=O)(=O)O)cc(S(=O)(=O)O)c45)ccc3C)c2)c1 [SURAMIN],IC50,[10],5 µM
same,EC50,[1],24 µM
C=C(NC(=O)C(=C)NC(=O)c1csc(C2=N[C@@H]3c4csc(n4)[C@H]4NC(=O)c5csc(n5)[C@H]([C@](C)(O)[C@@H](C)O)NC(=O)[C@H]5CSC(=N5)/C(=C/C)NC(=O)[C@H]([C@@H](C)O)NC(=O)c5csc(n5)[C@]3(CC2)NC(=O)[C@H](C)NC(=O)C(=C)NC(=O)[C@H](C)NC(=O)[C@H]([C@@H](C)CC)N[C@@H]2C=Cc3c([C@H](C)O)cc(nc3[C@H]2O)C(=O)O[C@@H]4C)n1)C(N)=O [THIOSTREPTON],IC50,[7],1800 µM
